Test results as given in the supplement of paper PMC10307832.

How the values were obtained:
Experiment in all cases: relative viability (nuclei count vs DMSO), 5 days (fraction); higher = more cells survive
HCC-44 = system: HCC-44
Outline: (§1)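 For relative viability, nuclei counts in treated wells were divided by those in vehicle wells. Lung cancer cell lines had been pin-tool dosed in 1536-well plates the day after seeding and cultured for 5 days, then fixed and stained in one step (final 0.05% Triton X-100, 1% formaldehyde, 1 ug/ml Hoechst) and imaged at 4×. Doses were one drug alone or a fixed anchor-drug dose plus five library-drug doses (not always all listed) in √10 steps, and values are duplicate-plate medians.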

COR-L23 = system: COR-L23
Outline: as §1

NCI-H1975 = system: NCI-H1975
Outline: as §1

BEN = system: BEN
Outline: as §1

HCC-827 = system: HCC-827
Outline: as §1

201T = system: 201T
Outline: as §1

SK-MES-1 = system: SK-MES-1
Outline: as §1

HARA = system: HARA
Outline: as §1

NCI-H23 = system: NCI-H23
Outline: as §1

NCI-H441 = system: NCI-H441
Outline: as §1

NCI-H358 = system: NCI-H358
Outline: as §1

SMILES: Nc1ccn([C@@H]2O[C@H](CO)[C@@H](O)[C@@H]2O)c(=O)n1 [Cytarabine] + Nc1ncn([C@H]2C[C@H](O)[C@@H](CO)O2)c(=O)n1 [Decitabine] (partner 2 µM)
- relative viability (HCC-44; first compound 0.01581 µM): 0.941
- relative viability (HCC-44; first compound 0.05 µM): 0.87
- relative viability (HCC-44; first compound 0.1581 µM): 0.748
- relative viability (HCC-44; first compound 0.5 µM): 0.737
- relative viability (COR-L23; first compound 0.005 µM): 0.43
- relative viability (COR-L23; first compound 0.01581 µM): 0.377
- relative viability (COR-L23; first compound 0.05 µM): 0.341
- relative viability (COR-L23; first compound 0.1581 µM): 0.205
- relative viability (COR-L23; first compound 0.5 µM): 0.156
- relative viability (NCI-H1975; first compound 0.005 µM): 0.336
- relative viability (NCI-H1975; first compound 0.01581 µM): 0.353
- relative viability (NCI-H1975; first compound 0.05 µM): 0.562
- relative viability (NCI-H1975; first compound 0.1581 µM): 0.271
- relative viability (NCI-H1975; first compound 0.5 µM): 0.257
- relative viability (BEN; first compound 0.005 µM): 0.675
- relative viability (BEN; first compound 0.01581 µM): 0.558
- relative viability (BEN; first compound 0.05 µM): 0.43
- relative viability (BEN; first compound 0.1581 µM): 0.345
- relative viability (BEN; first compound 0.5 µM): 0.31
- relative viability (HCC-827; first compound 0.005 µM): 0.232
- relative viability (HCC-827; first compound 0.01581 µM): 0.239
- relative viability (HCC-827; first compound 0.05 µM): 0.182
- relative viability (HCC-827; first compound 0.1581 µM): 0.152
- relative viability (HCC-827; first compound 0.5 µM): 0.167
- relative viability (201T; first compound 0.005 µM): 0.847
- relative viability (201T; first compound 0.01581 µM): 0.853
- relative viability (201T; first compound 0.05 µM): 0.802
- relative viability (201T; first compound 0.1581 µM): 0.72
- relative viability (201T; first compound 0.5 µM): 0.668
- relative viability (SK-MES-1; first compound 0.005 µM): 0.29
- relative viability (SK-MES-1; first compound 0.01581 µM): 0.211
- relative viability (SK-MES-1; first compound 0.05 µM): 0.205
- relative viability (SK-MES-1; first compound 0.1581 µM): 0.183
- relative viability (SK-MES-1; first compound 0.5 µM): 0.155
- relative viability (HARA; first compound 0.005 µM): 0.448
- relative viability (HARA; first compound 0.01581 µM): 0.236
- relative viability (HARA; first compound 0.05 µM): 0.347
- relative viability (HARA; first compound 0.1581 µM): 0.173
- relative viability (HARA; first compound 0.5 µM): 0.18
- relative viability (NCI-H23; first compound 0.005 µM): 0.296
- relative viability (NCI-H23; first compound 0.01581 µM): 0.267
- relative viability (NCI-H23; first compound 0.05 µM): 0.274
- relative viability (NCI-H23; first compound 0.1581 µM): 0.195
- relative viability (NCI-H23; first compound 0.5 µM): 0.193
- relative viability (NCI-H441; first compound 0.005 µM): 0.289
- relative viability (NCI-H441; first compound 0.01581 µM): 0.186
- relative viability (NCI-H441; first compound 0.05 µM): 0.268
- relative viability (NCI-H441; first compound 0.1581 µM): 0.182
- relative viability (NCI-H441; first compound 0.5 µM): 0.153
- relative viability (NCI-H358; first compound 0.005 µM): 0.229
- relative viability (NCI-H358; first compound 0.01581 µM): 0.205
- relative viability (NCI-H358; first compound 0.05 µM): 0.226
- relative viability (NCI-H358; first compound 0.1581 µM): 0.133
- relative viability (NCI-H358; first compound 0.5 µM): 0.107
